Target: human BLT1 receptor (Homo sapiens (Human), UniProt Q15722)
Test: BLT-1 cAMP Assay
Type: cell-based
Settings: antagonist mode; HEK293 cells recombinantly expressing human BLT1 receptor; forskolin 4 μM and LTB4 2 nM
Description: The ability of compounds to antagonize the human BLT1 receptor was determined using a kit to measure changes in intracellular cyclic AMP levels (cAMP dynamic assay kit, Cisbio Cat. No. 62AM4PEC). HEK293 cells recombinantly expressing human BLT1 receptor, previously frozen in Recovery Medium (Life Technologies, Cat. No. 12648-010) were thawed and diluted into assay medium (HBSS (Hyclone SH 30268.01), 20 mM HEPES (Gibco 15630-106), 800 μM IBMX (Sigma 15879), 0.1% DTPA BSA (Perkin Elmer CR84-100)). The cell suspension was centrifuged at 200×g for 10 min and then resuspended in fresh assay medium to a density of 2.5×10^5 cells/mL. A Labcyte Echo 550 acoustic dispenser was used to transfer 25 nL of test compound dissolved in DMSO into the wells of a dry 384-well plate (Greiner 784075). All subsequent liquid additions were performed using a BIORAPTR (FRD; Beckman Coulter). Next, 5 μL of cell suspension was added and incubated for 20 min. at 37° C. and 5% CO2 in a humidified plastic tray. To test for agonist activity 5 μL of assay buffer containing forskolin (Sigma F-6886. 4 μM for BLT1) was added and incubated for 30 minutes at 37° C. and 5% CO2 in a humidified plastic tray. To test for antagonist activity 5 μL of assay buffer containing forskolin (Sigma F-6886. 4 μM for BLT1) and either LTB4 (Sigma Aldrich L0517; 2 nM BLT1) was added and incubated for 30 minutes at 37° C. and 5% CO2 in a humidified plastic tray.
The levels of cAMP were detected using the CisBio kit following the manufacturer's instructions: cAMP-d2 vial was reconstituted with distilled water and then diluted accordingly with conjugate & lysis buffer. 5 μL of cAMP-d2 working solution was added to all of the wells of the assay plate. cAMP-Cryptate vial was reconstituted with distilled water and then diluted accordingly with conjugate & lysis buffer. 5 μL of cAMP-Cryptate working solution were added to the assay plate. The assay plate was shaken for 3 minutes and incubated at room temperature for 45 minutes, then read on Perkin Elmer Envision. cAMP standard curve and fit data were plotted using a 4 parameter dose response curve fitting algorithm to fit curve. A 4-parameter curve fit (Max, min, log EC50 and slope) was used to transform fluorescent 665 nm/615 nm ratio signal to cAMP concentration. After normalization to treated and untreated controls, the percent effect of signal at each compound concentration was calculated. The plot of percent effect versus the log of compound concentration was fit with a 4-parameter concentration response equation to calculate EC50 values. Compound concentrations tested were 10 000, 3 333, 1 111, 370.4, 123.4, 41.2, 13.7, 4.6, 1.5 and 0.5 nM with 0.25% residual DMSO.

Sequence of human BLT1 receptor (Q15722 whole entry): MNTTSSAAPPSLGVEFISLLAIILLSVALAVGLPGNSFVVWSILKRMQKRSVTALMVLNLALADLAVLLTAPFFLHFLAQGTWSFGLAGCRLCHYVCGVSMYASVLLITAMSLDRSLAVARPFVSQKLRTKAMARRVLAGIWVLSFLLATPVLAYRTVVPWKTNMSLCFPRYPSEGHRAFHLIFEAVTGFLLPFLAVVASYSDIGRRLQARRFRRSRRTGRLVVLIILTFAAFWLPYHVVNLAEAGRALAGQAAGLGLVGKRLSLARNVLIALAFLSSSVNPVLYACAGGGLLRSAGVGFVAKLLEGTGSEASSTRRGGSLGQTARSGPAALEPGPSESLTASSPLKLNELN

Row | SMILES | EC50
1 | Cc1ncc(-c2ccc(C[C@@H]3COc4cc(-c5ccccc5C(=O)NS(=O)(=O)C5CC5)ccc4[C@H]3O)nc2)s1 (racemic) [Example 9, N-(Cyclopropylsulfonyl)-2-((rac-trans)-4-hydroxy-3-((5-(2-methylthiazol-5-yl)pyridin-2-yl)methyl)chroman-7-yl)benzamide] | 9 nM
2 | Cc1ncc(-c2ccc(C[C@H]3COc4cc(-c5ccccc5C(=O)NS(=O)(=O)C5CC5)ccc4[C@@H]3O)nc2)s1 (single isomer, unassigned) [Example 10, N-(Cyclopropylsulfonyl)-2-((3S,4R or 3R,4S)-4-hydroxy-3-((5-(2-methylthiazol-5-yl)pyridin-2-yl)methyl)chroman-7-yl)benzamide] | 6 nM
3 | Cc1ncc(-c2ccc(C[C@@H]3COc4cc(-c5ccccc5C(=O)NS(=O)(=O)C5CC5)ccc4[C@H]3O)nc2)s1 (single isomer, unassigned) [Example 11, N-(Cyclopropylsulfonyl)-2-((3R,4S or 3S,4R)-4-hydroxy-3-((5-(2-methylthiazol-5-yl)pyridin-2-yl)methyl)chroman-7-yl)benzamide] | 391 nM
4 | CC(C)(C)S(=O)(=O)NC(=O)c1ccccc1-c1ccc2c(c1)OC[C@@H](Cc1ccc(-c3cncs3)cn1)[C@@H]2O (single isomer, unassigned) [Example 6, N-(tert-Butylsulfonyl)-2-((3R, 4S or 3S, 4R)-4-hydroxy-3-((5-(thiazol-5-yl)pyridin-2-yl)methyl)chroman-7-yl)benzamide] | 128 nM
5 | CC(C)(C)S(=O)(=O)NC(=O)c1ccccc1-c1ccc2c(c1)OC[C@@H](Cc1ccc(-c3cncs3)cn1)[C@@H]2O (racemic) [Example 4, N-(tert-Butylsulfonyl)-2-((rac-trans)-4-hydroxy-3-((5-(thiazol-5-yl)pyridin-2-yl)methyl)chroman-7-yl)benzamide] | 8 nM
6 | CC1(S(=O)(=O)NC(=O)c2ccccc2-c2ccc3c(c2)OC[C@H](Cc2ccc(-c4cncs4)cn2)[C@H]3O)CC1 (single isomer, unassigned) [Example 2, 2-((3S, 4R or 3R, 4S)-4-Hydroxy-3-((5-(thiazol-5-yl)pyridin-2-yl)methyl)chroman-7-yl)-N-((1-methylcyclopropyl)sulfonyl)benzamide] | 6 nM
7 | CC1(S(=O)(=O)NC(=O)c2ccccc2-c2ccc3c(c2)OC[C@@H](Cc2ccc(-c4cncs4)cn2)[C@@H]3O)CC1 [Example 1, 2-((Rac-trans)-4-Hydroxy-3-((5-(thiazol-5-yl)pyridin-2-yl)methyl)chroman-7-yl)-N-((1-methylcyclopropyl)sulfonyl)benzamide] | 6 nM
8 | CC(C)(C)S(=O)(=O)NC(=O)c1ccccc1-c1ccc2c(c1)OC[C@H](Cc1ccc(-c3cncs3)cn1)[C@H]2O (single isomer, unassigned) [Example 5, N-(tert-Butylsulfonyl)-2-((3S, 4R or 3R, 4S)-4-hydroxy-3-((5-(thiazol-5-yl)pyridin-2-yl)methyl)chroman-7-yl)benzamide] | 5 nM
9 | Cc1ncc(-c2ccc(C[C@@H]3COc4cc(-c5ccccc5C(=O)NS(=O)(=O)C(C)(C)C)ccc4[C@H]3O)nc2)s1 (racemic) [Example 7, N-(tert-Butylsulfonyl)-2-((rac-trans)-4-hydroxy-3-((5-(2-methylthiazol-5-yl)pyridin-2-yl)methyl)chroman-7-yl)benzamide] | 5 nM
10 | CC1(S(=O)(=O)NC(=O)c2ccccc2-c2ccc3c(c2)OC[C@@H](Cc2ccc(-c4cncs4)cn2)[C@@H]3O)CC1 (single isomer, unassigned) [Example 3, 2-((3R, 4S or 3S, 4R)-4-Hydroxy-3-((5-(thiazol-5-yl)pyridin-2-yl)methyl)chroman-7-yl)-N-((1-methylcyclopropyl)sulfonyl)benzamide] | 78 nM
11 | O=C(NS(=O)(=O)C1CC1)c1ccccc1-c1ccc2c(c1)OC[C@@H](Cc1ccc(-c3cncs3)cn1)[C@@H]2O (racemic) [Example 8, N-(Cyclopropylsulfonyl)-2-((rac-trans)-4-hydroxy-3-((5-(thiazol-5-yl)pyridin-2-yl)methyl)chroman-7-yl)benzamide] | 12 nM

Reference: patent US10370368B2, “Aryl acylsulfonamides as BLT1 antagonists” (Merck Sharp & Dohme Corp., priority 2015, dated 2019)
